Molecular target: T1, uterine OT receptors (Rattus norvegicus, UniProt P70536)
T1 construct: crude membrane preparation of uteri; from tissue; host or cells: uterus of DES-treated rats, crude membranes
T1 sequence (P70536 1-388): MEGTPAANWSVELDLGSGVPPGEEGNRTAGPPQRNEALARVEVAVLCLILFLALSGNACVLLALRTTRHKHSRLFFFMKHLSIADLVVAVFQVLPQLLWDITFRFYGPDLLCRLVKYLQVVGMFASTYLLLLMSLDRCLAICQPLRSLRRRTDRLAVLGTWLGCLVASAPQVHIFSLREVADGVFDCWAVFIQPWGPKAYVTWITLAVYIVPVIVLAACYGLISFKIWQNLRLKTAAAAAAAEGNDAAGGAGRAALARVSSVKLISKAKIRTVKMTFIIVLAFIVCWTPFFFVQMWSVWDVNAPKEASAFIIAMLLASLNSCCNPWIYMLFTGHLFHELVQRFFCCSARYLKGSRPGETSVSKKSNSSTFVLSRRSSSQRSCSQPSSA
Assay: Radioligand binding: competition of [^3 H]oxytocin binding to rat uterine membranes
Settings: 1 nM [^3 H]OT, rat uterus membranes, 60 minutes, 22° C., pH 7.4; read-out: IC50
Source text: RADIOGLIGAND BINDING ASSAYS
The high affinity binding of [^3 H]

SMILES | IC50
Cc1ccccc1N1CCN(S(=O)(=O)CC23CCC(CC2N(C)C(=O)[C@H](CCS(C)(=O)=O)N(C)C)C3(C)C)CC1 (stereo partly drawn) [Example 78, 1-((7,7-Dimethyl-2-endo-methyl(2S-dimethylamino-4-(methylsulfonyl)butanoyl)amino-bicyclo(2.2.1)heptan-1-yl)methanesulfonyl)-4-(2-methylphenyl)-piperazine] | 110 nM
Cc1ccccc1N1CCN(C(=O)C2C3CCC(C)(C2NC(=O)C(N)CCS(C)(=O)=O)C3(C)C)CC1 (stereo not drawn) [Example 12, 1-(2-methylphenyl)-4-[(4,7,7-trimethyl-3-endo-(4-methylsulfonyl-2-amino)butanoylaminobicyclo[2.2.1]hept-2-endo-yl)carbonyl]-piperazine] | 15.3 nM
Cc1ccccc1N1CCN(C(=O)C2(C)C(=O)C3(C)CCC2C3(C)C)CC1 (centres unmarked) [Example 3, 1-(2-methylphenyl)-4-[(2,4,7,7-tetramethyl-3-oxobicyclo[2.2.1]hept-2-yl)carbonyl]-piperazine] | 150 nM

More lines, now with the values ahead:

IC50 | SMILES
30 nM | Cc1ccccc1N1CCN(S(=O)(=O)CC23CCC(CC2(O)C(C)CNC(=O)C2CCNCC2)C3(C)C)CC1 (centres unmarked) [Example 90]
10 nM | Cc1ccccc1N1CCN(S(=O)(=O)C[C@]23CC[C@H](C[C@]2(O)C(C)CNC(=O)[C@@H]2CCCN2CCCC(=O)O)C3(C)C)CC1 (stereo partly drawn) [Example 42, 1-((7,7-Dimethyl-2-exo-hydroxy-2-endo-2-(1-(1-N-(3-carboxypropyl)prolyl)amino)propyl-bicyclo(2.2.1)heptan-1-yl)methanesulfonyl)-4-(2-methylphenyl) piperazine]
54 nM | COC(=O)CCN(CCC(=O)OC)CC(C)[C@@]1(O)C[C@H]2CC[C@]1(CS(=O)(=O)N1CCN(c3ccccc3C)CC1)C2(C)C (stereo partly drawn) [Example 47, 1-((7,7-dimethyl-2-exo-hydroxy-2-endo-2-(1-bis-(2-methoxycarbonylethyl)amino)propyl-bicyclo(2.2.1)heptan-1-yl)methanesulfonyl)-4-(2-methylphenyl)piperazine]

Same assay, conditions: read-out: % inhibition at 100 nM

SMILES | inhibition at 0.1 µM
Cc1ccccc1N1CCN(S(=O)(=O)C[C@]23CC[C@H](CC2=CCN)C3(C)C)CC1 [Example 52, 1-((7,7-dimethyl-2-(2-amino)ethylidine-bicyclo-(2.2.1)heptan-1-yl)methanesulfonyl)-4-(2-methyl-phenyl)piperazine] | 36%

Same assay, conditions: read-out: % inhibition at 1000 nM

SMILES | inhibition at 1 µM
CCOC(=O)C(CC=C1CC2CCC1(CS(=O)(=O)N1CCN(c3ccccc3C)CC1)C2(C)C)(NC(C)=O)C(=O)OCC (centres unmarked) [Example 64, 1-((7,7-Dimethyl-2-(3-acetamido-3,3'-di(ethoxycarbonyl))propylidine-bicyclo(2.2.1)heptan-1-yl)methanesulfonyl)-4-(2-methylphenyl)piperazine] | 78%
Cc1ccccc1N1CCN(S(=O)(=O)C[C@]23CC[C@H](C=C2C(=O)O)C3(C)C)CC1 [Example 57, 1-((7,7-Dimethyl-2-carboxy-bicyclo(2.2.1)hept-2-en-1-yl)methanesulfonyl)-4-(2-methylphenyl)piperazine] | 78%
Cc1ccccc1N1CCN(C(=O)C2(CC(=O)O)C(=O)C3(C)CCC2C3(C)C)CC1 (centres unmarked) [Example 4, 1-(2-methylphenyl)-4-[(4,7,7-trimethyl-3-oxo-2-carboxymethyl-bicyclo[2.2.1]hept-2-yl)carbonyl]-piperazine] | 53%
Cc1ccccc1N1CCN(S(=O)(=O)C[C@]23CC[C@H](C[C@]2(O)CNCC(C)C)C3(C)C)CC1 [Example 55, 1-((7,7-Dimethyl-2-exo-hydroxy-2-endo-isobutylamino-methylbicyclo(2.2.1)heptan-1-yl)methanesulfonyl)-4-(2-methylphenyl)piperazine] | 72%
